Results published in patent US20250213647A1, “CHEMOKINE RECEPTORS AND ALPHA1 ADRENERGIC RECEPTORS/VASOPRESSIN RECEPTORS 1A HETEROMERS AS DRUG TARGETS FOR DISEASE” (UNIVERSITY OF SOUTH FLORIDA, priority 2022, published 2025).

Tests used:
CCR2 [1] = biological target: T1, CCR2 (Homo sapiens, UniProt P41597); assay: Chemotaxis assay, THP-1 cells toward CCL2 (CCR2-mediated); type: cell-based; parameters: host or cells: THP-1; settings: CCL2 10 nM, mean±SE, read-out: IC50 for inhibition of CCR2-mediated chemotaxis
Description: (§1) Cell migration was measured employing the Neuroprobe (Gaithersburg, MD, USA) ChemoTx® Disposable Chemotaxis System. A 96-well Boyden-chamber (30 μL/well, 8 μm pores, 1×10^5 pores/cm^2 pore density) was selected for all chemotaxis experiments. Bottom wells of the Boyden-chamber were loaded with 30 μL of test substances at various concentrations. Top wells of the membrane were loaded with 25 μL of THP-1 cells, THP-1_ADRA1B^KO, wild type THP-1 cells after clonal expansion (=control for THP-1_ADRA1B^KO) or freshly isolated monocytes (200 cells/μL). THP-1 cells were suspended in depleted RPMI1640 (0.5% HyClone™ fetal bovine serum, Sigma); Freshly isolated monocytes were suspended in RPMI1640 (0.5% human platelet poor plasma, Sigma). After 3 hours, transmigrated cells were counted utilizing the Cytation 1 plate reader (BioTek) by direct imaging in high contrast bright field (4×) and post-imaging particle analyses with Gen5 (v3.05) Imaging & Microscopy Software (BioTek). The chemotactic index (CI) was calculated as the ratio of cells that transmigrated in the presence versus the absence of the test solutions.

[2] = tested on: heteromeric complexes between α1B/D-ARs and CCR1, CCR2, CXCR4; assay: Proximity ligation assay, receptor-receptor interactions on THP-1 cells; settings: 10 μM, 30 min at 37° C.; FIG. 8
[3] = tested on: leukocyte infiltration into dorsal air pouches; assay: Murine air pouch model, leukocyte infiltration; type: in vivo, C57BL/6 mice; settings: co-injected into the air pouch; phenylephrine 10-100 mg/kg, phentolamine 5-50 mg/kg; 24 h; FIG. 9B-D
Description: All procedures were performed according to the National Institutes of Health Guidelines for Use of Laboratory Animals and were approved by the Institutional Animal Care and Use Committee of the University of South Florida (IS00010570). Male and female C57BL/6 mice (20-25 g) were obtained from Envigo (Indianapolis, IN). Six days prior to the start of the experiments, mice were anesthetized with 1.7% sevoflurane, the dorsal cervical/thoracic region was shaved, disinfected with 70% ethanol and 3 mL of sterile air were injected subcutaneously (s.c.) to create an air pouch. […] 5 ml ice cold lavage fluid was injected into each air pouch using a syringe with a 23-G, 1-inch needle, the air pouch was gently massaged for 60 seconds, the lavage fluid was harvested using the same syringe and needle and the recovered volume was recorded. […] Erythrocytes in the cell pellets were lysed with Invitrogen 1× RBC lysis buffer and the harvested air pouch cells analyzed by flow cytometry.
Harvested air pouch cells were incubated with APC-conjugated anti-mouse CD45 or APC-conjugated immunoglobulin G 2B (IgG2B; isotype control) for 145 min in the dark at room temperature. […] Cells were then washed again, resuspended in PBS, and the cell-associated light scatter and fluorescence were determined with a LSRII instrument (Becton Dickinson). […]

CCR1 = assay: Chemotaxis assay, THP-1 cells toward CCL23 (CCR1-mediated); type: cell-based, human; settings: CCL23 10 nM, mean±SE, read-out: IC50 for inhibition of CCR1-mediated chemotaxis
Description: as §1

CCR2 [4] = biological target: T1, CCR2; assay: Gαi activation assay (TRUPATH BRET), HEK293T cells transfected with CCR2 plus pcDNA3 (CCR2 alone); type: cell-based; settings: cells transfected with CCR2 alone; 10 μM PE or PT; FIG. 4B, 4E
Description: (§2) HEK293T cells were plated in a 6-well plate and transfected with 0.2 μg each of Gαi1-Rluc8, Gβ3 and Gγ9-GFP2 (Trupath) together with 0.2 μg of mouse or human CCR2 with either pcDNA3.1 or α1b-AR. One day after transfection, cells were trypsinized and replated to 96-well poly-L lysine precoated plates. After overnight incubation, cells were replaced with 0.1% glucose/PBS. Prolume Purple (NanoLight Tech.) or coelenterazine 400a in a final concentration of 5 μM were added in experiments with human or mouse CCR2, respectively, and incubated at room temperature for 3 min. Ligands at various concentrations were added to cells and incubated at room temperature for 5 min before luminescence was measured at 410 nm and 515 nm. […] The BRET changes were calculated by subtracting the BRET signal of untreated cells.

CXCR4 [5] = settings: previous observations (Gao, 2018); cited from earlier work
[6] = tested on: THP-1 cells (CCR2-mediated Gαi signaling); assay: Cyclic AMP measurement in forskolin-stimulated THP-1 cells; type: cell-based, human; settings: forskolin-stimulated THP-1 cells; 1 μM PE, 1 μM PT or 100 nM NE; 15 min at 37° C.; FIG. 4G, 4H
Description: Cyclic AMP amounts were measured using the cAMP complete enzyme immunoassay kit, acetylated format (Enzo Life Sciences). 4×10^5 cells were incubated with forskolin/isobutylmethylxanthine (10 μM/0.5 mM final concentrations) in 0.1% BSA/10 mM Hepes-buffered RPMI and treated with CCL2 in the presence or absence of 1 μM PE, 1 μM PT or 100 nM NE at 37° C. for 15 min. The cells were lysed by incubating with 0.1 M HCl at room temperature for 20 min. The cAMP amounts in the lysate supernatant were measured following the manufacturer's instructions.

[7] = tested on: α1B/D-AR, CCR1, CCR2, CXCR4, CCR8; assay: Proximity ligation assay, individual receptors on THP-1 cells; settings: 10 μM, 30 min at 37° C., FIG. 6; for cell surface expression of α1B/D-AR, CCR1, CCR2 and CXCR4 (PLA signals): vs vehicle
CCR2 [8] = biological target: T1, CCR2; assay: BRET assay for β-arrestin recruitment, HEK293T with CCR2-Rluc and β-arrestin-YFP without α1b-AR; type: cell-based; settings: 10 μM PE, PT or 100 nM INCB3284, FIG. 5C
Description: β-arrestin recruitment was measured by BRET, as described (Armando, 2014; Berchiche, 2011). In brief, HEK293T cells were plated in a 6-well plate and transfected with 0.1 μg of CCR2-RluII and 1.9 μg β-arrestin-YFP with 0.1 μg pcDNA3.1 or α1b-AR. One day after transfection, cells were re-plated into 96-well poly-L lysine precoated plates. After overnight incubation, cells were replaced with 0.1% glucose/PBS. Coelenterazine H in a final concentration of 5 μM was added to cells and incubated at room temperature for 3 min. […] The BRET changes were calculated by subtracting the BRET signal of untreated cells.

CCR2 [9] = biological target: T1, CCR2; parameters: host or cells: THP-1; settings: previous finding (Enten, 2022); cited from earlier work
CCR8 = assay: Chemotaxis assay, THP-1 cells toward CCL1 (CCR8-mediated); type: cell-based, human
Description: as §1

α1b-AR:CCR2 heteromer = biological target: T2, α1b-AR:CCR2 heteromer (Homo sapiens, UniProt P35368+P41597); assay: Gαi activation assay (TRUPATH BRET), HEK293T cells transfected with CCR2 plus α1b-AR; type: cell-based; settings: for Gαi1 activation by the ligand alone: cells transfected with α1b-AR alone, CCR2 alone or CCR2 plus α1b-AR, FIG. 4A
T2 construct: expressed in transfected cells; host or cells: HEK293T
Description: as §2

[10] = tested on: CR heteromerization partners of α1B/D-ARs (CCR1, CCR2, CXCR4); assay: Chemotaxis assay, THP-1 cells, CR heteromerization partners of α1B/D-ARs taken together; type: cell-based, human; settings: for chemotactic dose-responses for CCL23, CCL2 and CXCL12 in the presence of the ligand: 10 μM of phenylephrine or phentolamine, FIG. 17G-17I
Description: as §1

CXCR4 [11] = assay: Chemotaxis assay, THP-1 cells toward CXCL12 (CXCR4-mediated); type: cell-based, human; settings: CXCL12 100 nM, mean±SE, read-out: IC50 for inhibition of CXCR4-mediated chemotaxis
Description: as §1

T1 sequence (P41597 whole entry): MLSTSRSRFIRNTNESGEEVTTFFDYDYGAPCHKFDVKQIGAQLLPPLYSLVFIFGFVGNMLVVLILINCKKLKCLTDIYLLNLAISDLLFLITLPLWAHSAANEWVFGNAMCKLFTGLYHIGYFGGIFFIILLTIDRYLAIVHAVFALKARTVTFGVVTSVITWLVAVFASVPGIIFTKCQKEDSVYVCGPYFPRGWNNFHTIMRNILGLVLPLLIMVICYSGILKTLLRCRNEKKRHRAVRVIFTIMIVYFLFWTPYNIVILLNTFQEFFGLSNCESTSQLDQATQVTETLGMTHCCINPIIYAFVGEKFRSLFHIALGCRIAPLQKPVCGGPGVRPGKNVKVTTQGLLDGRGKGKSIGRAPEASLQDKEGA
T2 sequence (P41597 whole entry): as above
T2 sequence (P35368 whole entry): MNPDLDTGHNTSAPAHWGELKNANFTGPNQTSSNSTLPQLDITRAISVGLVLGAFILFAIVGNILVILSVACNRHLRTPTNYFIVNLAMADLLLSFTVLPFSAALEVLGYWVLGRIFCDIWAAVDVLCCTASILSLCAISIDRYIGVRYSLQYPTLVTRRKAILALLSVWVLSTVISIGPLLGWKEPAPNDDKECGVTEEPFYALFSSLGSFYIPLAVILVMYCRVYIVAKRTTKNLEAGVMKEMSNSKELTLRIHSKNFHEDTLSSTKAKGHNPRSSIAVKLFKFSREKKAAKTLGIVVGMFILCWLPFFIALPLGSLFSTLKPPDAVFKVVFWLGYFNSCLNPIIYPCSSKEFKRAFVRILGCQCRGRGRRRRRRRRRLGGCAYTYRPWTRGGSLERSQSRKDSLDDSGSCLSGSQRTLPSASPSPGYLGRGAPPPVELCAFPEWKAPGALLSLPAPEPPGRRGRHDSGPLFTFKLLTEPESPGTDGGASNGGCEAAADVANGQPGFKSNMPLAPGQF

Row | Compound | IC50 (CCR2 [1]) | heteromeric complexes between α1B/D-ARs and their chemokine heteromerization partners (PLA signals) [2] | leukocyte infiltration induced by LPS, CCL2 or CXCL12 [3] | IC50 (CCR1) | effect on CCL2-induced Gαi1 activation (CCR2 [4]) | CXCR4-mediated chemotaxis of primary human vascular smooth muscle cells (CXCR4 [5]) | effect on the effects of CCL2 on cAMP production [6] | expression of CCR8 (PLA signals) [7] | cell surface expression of α1B/D-AR, CCR1, CCR2 and CXCR4 (PLA signals) [7] | effect on the CCL2-induced BRET signal (CCR2-Rluc / β-arrestin-YFP) (CCR2 [8]) | binding affinity of CCR2 for CCL2 (CCR2 [9]) | CCR8-mediated chemotaxis (CCR8) | bottom plateau, CCL2-induced Gαi activation in the presence of the ligand (α1b-AR:CCR2 heteromer; CCL2 plus 1 μM NE, FIG. 4D) | bottom plateau, CCL2-induced Gαi activation in the presence of the ligand (α1b-AR:CCR2 heteromer; CCL2 plus 10 μM PE, FIG. 4C) | Gαi1 activation by the ligand alone (α1b-AR:CCR2 heteromer) | chemotactic dose-responses for CCL23, CCL2 and CXCL12 in the presence of the ligand [10] | inhibition of chemotaxis mediated via CR heteromerization partners of α1B/D-ARs ([10]; FIG. 17A) | IC50 (CXCR4 [11]) | bottom plateau, CCL2-induced Gαi activation in the presence of the ligand (α1b-AR:CCR2 heteromer; CCL2 plus 10 μM PT, FIG. 4F)
1 | CNC[C@H](O)c1cccc(O)c1 [phenylephrine] | 7.5 ± 7.7 nM | reduced | inhibited in a dose-dependent manner | 5 ± 6.7 nM | did not affect | inhibit | inhibited the effects of CCL2 on cAMP production | not affected | reduced | not affected | did not affect | did not affect | −0.031±0.002 | −0.03±0.002 | did not activate Gαi1 | inhibited chemotaxis over the complete range of chemokine concentrations | 50-55% | 17 ± 29 nM | –
2 | Cc1ccc(N(CC2=NCCN2)c2cccc(O)c2)cc1 [phentolamine] | 2.7 ± 3.5 nM | reduced | inhibited in a dose-dependent manner | 0.03 ± 0.08 nM | did not affect | inhibit | inhibited the effects of CCL2 on cAMP production | – | did not affect | not affected | did not affect | did not affect | – | – | did not activate Gαi1 | inhibited chemotaxis over the complete range of chemokine concentrations | – | 0.2 ± 0.2 nM | −0.033±0.002
